Like-named read-outs stand apart in the source and are kept apart here.
Assays:
Format in all cases: biochemical
[1] = target: T1, human Src enzyme (Homo sapiens, UniProt P12931); test: Src enzyme inhibitory activity (time-resolved fluorometry, biotinylated peptide phosphorylation); conditions: read-out: SRC_IC50
T1 construct: purchased Carna Biosciences, Inc. 08-173
How it was run: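 Compounds were tested for blocking tyrosine phosphorylation of a biotinylated peptide substrate by recombinant human Src. Phosphorylated product was quantified by time-resolved fluorometry using europium cryptate and XL665 conjugates, and IC50 was calculated against the compound-free control.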

[2] = target: T2, human Lck enzyme (Homo sapiens, UniProt P06239); test: Lck enzyme inhibitory activity (time-resolved fluorometry, biotinylated peptide phosphorylation); conditions: read-out: LCK_IC50
T2 construct: purchased Carna Biosciences, Inc. 08-170
T2 sequence (P06239 whole entry): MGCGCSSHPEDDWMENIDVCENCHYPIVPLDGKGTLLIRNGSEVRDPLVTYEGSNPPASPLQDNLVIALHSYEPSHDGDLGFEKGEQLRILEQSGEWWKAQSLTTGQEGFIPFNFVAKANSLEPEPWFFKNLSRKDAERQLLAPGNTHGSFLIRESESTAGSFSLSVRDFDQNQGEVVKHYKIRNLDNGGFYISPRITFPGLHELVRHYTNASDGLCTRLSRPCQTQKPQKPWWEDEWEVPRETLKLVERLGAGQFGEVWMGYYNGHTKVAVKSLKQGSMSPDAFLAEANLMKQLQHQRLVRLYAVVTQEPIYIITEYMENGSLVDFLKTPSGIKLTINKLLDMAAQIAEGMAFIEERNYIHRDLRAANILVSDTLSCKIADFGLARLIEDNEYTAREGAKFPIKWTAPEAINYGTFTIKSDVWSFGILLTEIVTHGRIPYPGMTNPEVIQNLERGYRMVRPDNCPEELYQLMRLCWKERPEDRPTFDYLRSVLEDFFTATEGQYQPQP
How it was run: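 Readout pairs a europium cryptate-labelled anti-phosphotyrosine antibody with XL665-streptavidin, measured by time-resolved fluorescence. IC50 derived from percent inhibition against untreated controls.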

[3] = target: T3, human Yes1 enzyme (Homo sapiens, UniProt P07947); test: Yes1 enzyme inhibitory activity (time-resolved fluorometry, biotinylated peptide phosphorylation); conditions: read-out: YES_IC50
T3 construct: made in house
T3 sequence (P07947 whole entry): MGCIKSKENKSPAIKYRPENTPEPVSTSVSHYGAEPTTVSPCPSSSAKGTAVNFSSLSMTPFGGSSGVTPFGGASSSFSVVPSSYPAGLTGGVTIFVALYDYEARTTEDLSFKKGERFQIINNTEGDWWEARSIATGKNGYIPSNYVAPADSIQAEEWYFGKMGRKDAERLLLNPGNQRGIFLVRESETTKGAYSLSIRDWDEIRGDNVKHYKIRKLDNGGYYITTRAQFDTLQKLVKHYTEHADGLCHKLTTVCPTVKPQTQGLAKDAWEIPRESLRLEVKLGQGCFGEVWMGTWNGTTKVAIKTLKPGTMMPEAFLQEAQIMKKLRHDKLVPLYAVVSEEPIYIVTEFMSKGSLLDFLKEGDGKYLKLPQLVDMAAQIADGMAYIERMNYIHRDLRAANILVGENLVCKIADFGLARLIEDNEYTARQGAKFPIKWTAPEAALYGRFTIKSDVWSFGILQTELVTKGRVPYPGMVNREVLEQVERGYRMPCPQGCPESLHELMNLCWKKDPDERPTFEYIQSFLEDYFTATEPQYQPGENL
How it was run: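 Inhibition was expressed against a compound-free control to give IC50, using TR-FRET read-out (Eu-cryptate anti-pTyr antibody, streptavidin-XL665).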

[4] = biotinylated peptide phosphorylation

T1 sequence (P12931 whole entry): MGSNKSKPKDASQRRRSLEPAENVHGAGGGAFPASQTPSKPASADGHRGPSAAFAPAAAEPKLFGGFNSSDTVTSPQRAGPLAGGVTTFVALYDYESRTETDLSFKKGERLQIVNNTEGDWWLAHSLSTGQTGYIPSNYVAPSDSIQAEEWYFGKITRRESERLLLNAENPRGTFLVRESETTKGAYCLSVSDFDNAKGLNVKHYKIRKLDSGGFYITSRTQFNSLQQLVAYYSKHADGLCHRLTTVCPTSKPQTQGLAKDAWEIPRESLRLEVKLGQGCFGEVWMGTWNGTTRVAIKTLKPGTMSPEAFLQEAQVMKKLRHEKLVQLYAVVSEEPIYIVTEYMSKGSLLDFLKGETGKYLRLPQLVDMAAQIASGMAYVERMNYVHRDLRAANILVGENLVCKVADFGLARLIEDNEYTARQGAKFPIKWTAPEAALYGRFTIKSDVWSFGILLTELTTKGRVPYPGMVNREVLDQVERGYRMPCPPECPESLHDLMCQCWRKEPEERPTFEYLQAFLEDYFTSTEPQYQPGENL

Structure (SMILES) | IC50 [1] | IC50 [2] | IC50 [3] | IC50 [1, 4] | IC50 [2, 4] | IC50 [3, 4]
Cc1ccccc1Oc1cc(C)c(-n2ncc(C(=O)c3cc4cc(NS(C)(=O)=O)c(F)cc4[nH]3)c2N)cn1 [Example 5-1-047, N-[2-[5-amino-1-[4-methyl-6-(2-methylphenoxy)pyridin-3-yl]pyrazole-4-carbonyl]-6-fluoro-1H-indol-5-yl] methanesulfonamide] | 15 nM | 5.1 nM | 0.87 nM | – | – | –
Cc1cc2cc(C(=O)c3cnn(-c4cnc(Oc5c(F)cccc5F)cc4C)c3N)[nH]c2cc1N1C(=O)N[C@@H](C(C)C)C1=O [Example 5-1-453, (5S)-3-[2-[5-amino-1-[6-(2,6-difluorophenoxy)-4-methylpyridin-3-yl]pyrazole-4-carbonyl]-5-methyl-1H-indol-6-yl]-5-propan-2-ylimidazolidine-2,4-dione] | – | – | – | 130 nM | 12 nM | 3.2 nM
Cc1cc(Oc2ccccc2F)ccc1-n1ncc(C(=O)c2cc3cc(OCC(F)F)c(N4C(=O)NC5(CCN(C6COC6)C5)C4=O)cc3[nH]2)c1N (stereo not drawn) [Example 5-1-353, 3-(2-(5-amino-1-(4-(2-fluorophenoxy)-2-methylphenyl)-1H-pyrazole-4-carbonyl)-5-(2,2-difluoroethoxy)-1H-indol-6-yl)-7-(oxetan-3-yl)-1,3,7-triazaspiro[4.4]nonane-2,4-dione] | 73 nM | 14 nM | 5.5 nM | – | – | –
Cc1cc(Oc2cc(F)cc(F)c2)ncc1-n1ncc(C(=O)c2cc3cc(F)c(NS(C)(=O)=O)cc3[nH]2)c1N [Example 5-1-038, N-[2-[5-amino-1-[6-(3,5-difluorophenoxy)-4-methylpyridin-3-yl]pyrazole-4-carbonyl]-5-fluoro-1H-indol-6-yl]methanesulfonamide] | 270 nM | 66 nM | 16 nM | – | – | –
Cc1cc(Oc2c(F)cccc2F)ncc1-n1ncc(C(=O)c2cc3cc(OCC(F)F)c(NS(=O)(=O)c4cc(F)cc(F)c4)cc3[nH]2)c1N [Example 5-1-330, N-[2-[5-amino-1-[6-(2,6-difluorophenoxy)-4-methylpyridin-3-yl]pyrazole-4-carbonyl]-5-(2,2-drfluoroethoxy)-1H-indol-6-yl]-3,5-difluorobenzenesulfonamide] | 700 nM | 200 nM | 11 nM | – | – | –
Cc1cc(Oc2c(F)cccc2F)ncc1-n1ncc(C(=O)c2cc3cc(F)c(N4C(=O)NC(C)(C)C4=O)cc3[nH]2)c1N [Example 5-1-114, 3-[2-[5-amino-1-[6-(2,6-difluorophenoxy)-4-methylpyridin-3-yl]pyrazole-4-carbonyl]-5-fluoro-1H-indol-6-yl]-5,5-dimethylimidazolidine-2,4-dione] | 41 nM | 1.1 nM | 1.7 nM | – | – | –
Cc1cc(Oc2ccccc2F)ncc1-n1ncc(C(=O)c2cc3cc(OC(F)F)c(C4CCN(S(=O)(=O)C5CC5)CC4)cc3[nH]2)c1N [Example 4-17-010, [5-amino-1-[6-(2-fluorophenoxy)-4-methylpyridin-3-yl]pyrazol-4-yl]-[6-(1-cyclopropylsulfonylpiperidin-4-yl)-5-(difluoromethoxy)-1H-indol-2-yl]methanone] | – | – | – | 99 nM | 45 nM | 2 nM
Cc1cc(Oc2ccccc2Cl)ncc1-n1ncc(C(=O)c2cc3cc(F)c(NS(=O)(=O)C4CC4)cc3[nH]2)c1N [Example 4-7-015, N-[2-[5-amino-1-[6-(2-chlorophenoxy)-4-methylpyridin-3-yl]pyrazole-4-carbonyl]-5-fluoro-1H-indol-6-yl]cyclopropanesulfonamide] | – | – | – | 110 nM | 17 nM | 0.92 nM
Cc1cc(-n2ncc(C(=O)c3cc4cc(OC5CCN(C(C)C)CC5)c(N5C(=O)N[C@@H](C(C)C)C5=O)cc4[nH]3)c2N)ccc1Oc1ccccc1F [Example 5-1-295, (5S)-3-[2-[5-amino-1-[4-(2-fluorophenoxy)-3-methylphenyl]pyrazole-4-carbonyl]-5-(1-propan-2-ylpiperidin-4-yl)oxy-1H-indol-6-yl]-5-propan-2-ylimidazolidine-2,4-dione] | 700 nM | 64 nM | 1.5 nM | – | – | –
CS(=O)(=O)Nc1cc2[nH]c(C(=O)c3cnn(-c4c(Cl)cc(Oc5cccc(F)c5F)cc4Cl)c3N)cc2cc1F [Example 5-1-024, N-[2-[5-amino-1-[2,6-dichloro-4-(2,3-difluorophenoxy)phenyl]pyrazole-4-carbonyl]-5-fluoro-1H-indol-6-yl]methanesulfonamide] | 340 nM | 83 nM | 26 nM | – | – | –
Cc1cc(Oc2ccccc2F)ccc1-n1ncc(C(=O)c2cc3cc(OCC(F)F)c(N4C(=O)NC5(CCN(C6COC6)CC5)C4=O)cc3[nH]2)c1N [Example 5-1-272, 3-[2-[5-amino-1-[4-(2-fluorophenoxy)-2-methylphenyl]pyrazole-4-carbonyl]-5-(2,2-difluoroethoxy)-1H-indol-6-yl]-8-(oxetan-3-yl)-1,3,8-triazaspiro[4.5]decane-2,4-dione] | 7.8 nM | 4.2 nM | 0.65 nM | – | – | –
Cc1cc(Oc2ccccc2F)ncc1-n1ncc(C(=O)c2cc3cc(F)c(N4CC(C)(C)NS4(=O)=O)cc3[nH]2)c1N [Example 5-1-421, [5-amino-1-[6-(2-fluorophenoxy)-4-methylpyridin-3-yl]pyrazol-4-yl]-[6-(4,4-dimethyl-1,1-dioxo-1,2,5-thiadiazolidin-2-yl)-5-fluoro-1H-indol-2-yl]methanone] | – | – | – | 84 nM | 17 nM | 1.1 nM
Cc1cc(-n2ncc(C(=O)c3cc4cc(F)c(C5CCN(C(C)C)CC5)cc4[nH]3)c2N)ccc1Oc1ccccc1F [Example 4-2-014, [5-amino-1-[4-(2-fluorophenoxy)-3-methylphenyl]pyrazol-4-yl]-[5-fluoro-6-(1-propan-2-ylpiperidin-4-yl)-1H-indol-2-yl]methanone] | – | – | – | 510 nM | 62 nM | 18 nM
Cc1cc(Oc2ccccc2F)ncc1-n1ncc(C(=O)c2cc3cc(F)c(NS(=O)(=O)CCCF)cc3[nH]2)c1N [Example 4-2-020, N-[2-[5-amino-1-[6-(2-fluorophenoxy)-4-methylpyridin-3-yl]pyrazole-4-carbonyl]-5-fluoro-1H-indol-6-yl]-3-fluoropropane-1-sulfonamide] | – | – | – | 59 nM | 11 nM | 2 nM
Nc1c(C(=O)c2cc3cc(F)c(NS(=O)(=O)CCCF)cc3[nH]2)cnn1-c1ccc(Oc2ncccc2Cl)cc1Cl [Example 5-1-037, N-[2-[5-amino-1-[2-chloro-4-(3-chloropyridin-2-yl)oxyphenyl]pyrazole-4-carbonyl]-5-fluoro-1H-indol-6-yl]-3-fluoropropane-1-sulfonamide] | 45 nM | 17 nM | 0.91 nM | – | – | –
CC(C)N1CCC(c2cc3[nH]c(C(=O)c4cnn(-c5ccc(Oc6cccc(F)c6)cc5F)c4N)cc3cc2F)CC1 [Example 5-1-006, [5-amino-1-[2-fluoro-4-(3-fluorophenoxy)phenyl]pyrazol-4-yl]-[5-fluoro-6-(1-propan-2-ylpiperidin-4-yl)-1H-indol-2-yl]methanone] | 56 nM | 6 nM | 0.73 nM | – | – | –
Cc1cc(Oc2ccccc2F)ccc1-n1ncc(C(=O)c2cc3cc(OCC(F)F)c(NC(=O)OCC4c5ccccc5-c5ccccc54)cc3[nH]2)c1N [Example 5-1-279, 9H-fluoren-9-ylmethyl N-[2-[5-amino-1-[4-(2-fluorophenoxy)-2-methylphenyl]pyrazole-4-carbonyl]-5-(2,2-difluoroethoxy)-1H-indol-6-yl] carbamate] | 910 nM | 170 nM | 14 nM | – | – | –
Cc1cc(Oc2ccccc2F)ccc1-n1ncc(C(=O)c2cc3cc(N4CCOCC4)c(N4CCCS4(=O)=O)cc3[nH]2)c1N [Example 4-25-006, [5-amino-1-[4-(2-fluorophenoxy)-2-methylphenyl]pyrazol-4-yl]-[6-(1,1-dioxo-1,2-thiazolidin-2-yl)-5-morpholin-4-yl-1H-indol-2-yl]methanone] | – | – | – | 18 nM | 9 nM | 1.1 nM
Cc1cc(Oc2ccccc2F)ncc1-n1ncc(C(=O)c2cc3cc(F)c(NS(=O)(=O)c4cccc(F)n4)cc3[nH]2)c1N [Example 5-1-519, N-[2-[5-amino-1-[6-(2-fluorophenoxy)-4-methylpyridin-3-yl]pyrazole-4-carbonyl]-5-fluoro-1H-indol-6-yl]-6-fluoropyridine-2-sulfonamide] | – | – | – | 710 nM | 120 nM | 4.6 nM
Cc1cc2cc(C(=O)c3cnn(-c4cnc(Oc5cccc(Cl)c5)cc4C)c3N)[nH]c2cc1N1CCCS1(=O)=O [Example 4-2-118, [5-amino-1-[6-(3-chlorophenoxy)-4-methylpyridin-3-yl]pyrazol-4-yl]-[6-(1,1-dioxo-1,2-thiazolidin-2-yl)-5-methyl-1H-indol-2-yl]methanone] | – | – | – | 110 nM | 35 nM | 5.7 nM
Cc1cc2cc(C(=O)c3cnn(-c4cnc(Oc5c(F)cccc5F)cc4C)c3N)[nH]c2cc1NS(C)(=O)=O [Example 4-1-001, N-{2-{5-amino-1-[6-(2,6-difluorophenoxy)-4-methylpyridin-3-yl]pyrazole-4-carbonyl}-5-methyl-1H-indol-6-yl}methanesulfonamide] | – | – | – | 45 nM | 8.2 nM | 1.2 nM
